Assay results: ChEMBL document CHEMBL4321812, “Structure-based rational design of staurosporine-based fluorescent probe with broad-ranging kinase affinity for kinase panel application” (Bioorg Med Chem Lett, 2019)

Experiments:
[1] = target: Serine/threonine-protein kinase Chk1 (Homo sapiens, UniProt O14757); assay: Binding affinity to recombinant human full-length N-terminal His-tagged CHEK1 expressed in baculovirus expression system using CHKtide as substrate incubated for 1 hr by TR-FRET assay
CDK2/Cyclin A2 = CDK2/Cyclin A2 (Homo sapiens, UniProt P24941); assay: Binding affinity to recombinant human full-length N-terminal GST-tagged CDK2/cyclin A2 expressed in baculovirus expression system using modified Histone H1 as substrate incubated for 1 hr by TR-FRET assay
[2] = target: Tyrosine-protein kinase ABL1 (Homo sapiens, UniProt P00519); assay: Binding affinity to recombinant human full-length N-terminal His-tagged ABL1 expressed in baculovirus expression system incubated for 1 hr by TR-FRET assay
[3] = target: Tyrosine-protein kinase JAK2 (Homo sapiens, UniProt O60674); assay: Binding affinity to recombinant N-terminal His-FLAG-GST-tagged JAK2 (unknown origin) (826 to 1132 residues) expressed in baculovirus infected Sf9 insect cells incubated for 1 hr by TR-FRET assay
[4] = target: Serine/threonine-protein kinase pim-3 (Homo sapiens, UniProt Q86V86); assay: Binding affinity to recombinant human full-length N-terminal GST-tagged PIM3 expressed in baculovirus expression system using S6K2 peptide as substrate incubated for 1 hr by TR-FRET assay
[5] = target: Serine/threonine-protein kinase Chk2 (Homo sapiens, UniProt O96017); assay: Binding affinity to recombinant full-length N-terminal His-FLAG-GST-tagged CHEK2 (unknown origin) expressed in baculovirus infected Sf9 insect cells incubated for 1 hr by TR-FRET assay
Ephrin type-A receptor 4 = Ephrin type-A receptor 4 (Homo sapiens, UniProt P54764); assay: Binding affinity to recombinant N-terminal His-FLAG-GST-tagged EPHA4 (unknown origin) (586 to 986 residues) expressed in baculovirus infected Sf9 insect cells incubated for 1 hr by TR-FRET assay
[6] = target: Serine/threonine-protein kinase MRCK gamma (Homo sapiens, UniProt Q6DT37); assay: Binding affinity to recombinant full-length N-terminal His-FLAG-GST-tagged DMPK2 (unknown origin) expressed in baculovirus infected Sf9 insect cells incubated for 1 hr by TR-FRET assay
[7] = target: MAP/microtubule affinity-regulating kinase 4 (Homo sapiens, UniProt Q96L34); assay: Binding affinity to recombinant full-length N-terminal His-FLAG-tagged MARK4 (unknown origin) expressed in baculovirus infected Sf9 insect cells incubated for 1 hr by TR-FRET assay
[8] = target: Tyrosine-protein kinase ZAP-70 (Homo sapiens, UniProt P43403); assay: Binding affinity to recombinant full-length N-terminal His-FLAG-GST-tagged ZAP70 (unknown origin) expressed in baculovirus infected Sf9 insect cells incubated for 1 hr by TR-FRET assay
Ephrin type-A receptor 3 = Ephrin type-A receptor 3 (Homo sapiens, UniProt P29320); assay: Binding affinity to recombinant N-terminal His-FLAG-GST-tagged EPHA3 (unknown origin) (579 to 983 residues) expressed in baculovirus infected Sf9 insect cells incubated for 1 hr by TR-FRET assay
[9] = target: cAMP-dependent protein kinase catalytic subunit PRKX (Homo sapiens, UniProt P51817); assay: Binding affinity to recombinant full-length N-terminal His-FLAG-GST-tagged PRKX (unknown origin) expressed in baculovirus infected Sf9 insect cells incubated for 1 hr by TR-FRET assay
Ephrin type-B receptor 2 = Ephrin type-B receptor 2 (Homo sapiens, UniProt P29323); assay: Binding affinity to recombinant N-terminal His-FLAG-GST-tagged EPHB2 (unknown origin) (581 to 986 residues) expressed in baculovirus infected Sf9 insect cells incubated for 1 hr by TR-FRET assay
[10] = target: Serine/threonine-protein kinase pim-2 (Homo sapiens, UniProt Q9P1W9); assay: Binding affinity to recombinant human full-length N-terminal GST-tagged PIM2 expressed in baculovirus expression system using S6K2 peptide as substrate incubated for 1 hr by TR-FRET assay
[11] = target: Cyclin-dependent kinase 5/CDK5 activator 1 (Homo sapiens, UniProt Q00535); assay: Binding affinity to recombinant human full-length N-terminal GST-tagged CDK5 (1 to 292 residues)/N-terminal His6-tagged p25 (99 to 307 residues) expressed in baculovirus expression system using modified histone H1 as substrate incubated for 1 hr by TR-FRET assay
[12] = target: Dual specificity mitogen-activated protein kinase kinase 7 (Homo sapiens, UniProt O14733); assay: Binding affinity to recombinant human full-length N-terminal GST-tagged MAP2K7 (1 to 419 residues) expressed in baculovirus expression system using JNK2 as substrate incubated for 1 hr by TR-FRET assay
Ephrin type-B receptor 4 = Ephrin type-B receptor 4 (Homo sapiens, UniProt P54760); assay: Binding affinity to recombinant N-terminal His-FLAG-GST-tagged EPHB4 (unknown origin) (577 to 987 residues) expressed in baculovirus infected Sf9 insect cells incubated for 1 hr by TR-FRET assay
[13] = target: Proto-oncogene tyrosine-protein kinase ROS (Homo sapiens, UniProt P08922); assay: Binding affinity to recombinant N-terminal His-FLAG-tagged ROS1 (unknown origin) (1883 to 2347 residues) expressed in baculovirus infected Sf9 insect cells incubated for 1 hr by TR-FRET assay
[14] = target: Tyrosine-protein kinase TXK (Homo sapiens, UniProt P42681); assay: Binding affinity to recombinant human N-terminal GST-tagged TXK (260 to 527 residues) expressed in baculovirus expression system using srctide as substrate incubated for 1 hr by TR-FRET assay
[15] = target: Serine/threonine-protein kinase SIK3 (Homo sapiens, UniProt Q9Y2K2); assay: Binding affinity to recombinant N-terminal His-FLAG-GST-tagged SIK3 (unknown origin) (59 to 365 residues) expressed in baculovirus infected Sf9 insect cells incubated for 1 hr by TR-FRET assay
Ephrin type-B receptor 6 = Ephrin type-B receptor 6 (Homo sapiens, UniProt O15197); assay: Binding affinity to recombinant N-terminal His-FLAG-GST-tagged EPHB6 (unknown origin) (683 to 1130 residues) expressed in baculovirus infected Sf9 insect cells incubated for 1 hr by TR-FRET assay
Ephrin type-A receptor 8 = Ephrin type-A receptor 8 (Homo sapiens, UniProt P29322); assay: Binding affinity to recombinant N-terminal His-FLAG-GST-tagged […] (unknown origin) (571 to 924 residues) expressed in baculovirus infected Sf9 insect cells incubated for 1 hr by TR-FRET assay
[16] = target: Homeodomain-interacting protein kinase 2 (Homo sapiens, UniProt Q9H2X6); assay: Binding affinity to recombinant full-length N-terminal His-FLAG-tagged HIPK2 (unknown origin) expressed in baculovirus infected Sf9 insect cells incubated for 1 hr by TR-FRET assay

Chain of Tyrosine-protein kinase ZAP-70 (P43403 whole entry, the tested form may be a part): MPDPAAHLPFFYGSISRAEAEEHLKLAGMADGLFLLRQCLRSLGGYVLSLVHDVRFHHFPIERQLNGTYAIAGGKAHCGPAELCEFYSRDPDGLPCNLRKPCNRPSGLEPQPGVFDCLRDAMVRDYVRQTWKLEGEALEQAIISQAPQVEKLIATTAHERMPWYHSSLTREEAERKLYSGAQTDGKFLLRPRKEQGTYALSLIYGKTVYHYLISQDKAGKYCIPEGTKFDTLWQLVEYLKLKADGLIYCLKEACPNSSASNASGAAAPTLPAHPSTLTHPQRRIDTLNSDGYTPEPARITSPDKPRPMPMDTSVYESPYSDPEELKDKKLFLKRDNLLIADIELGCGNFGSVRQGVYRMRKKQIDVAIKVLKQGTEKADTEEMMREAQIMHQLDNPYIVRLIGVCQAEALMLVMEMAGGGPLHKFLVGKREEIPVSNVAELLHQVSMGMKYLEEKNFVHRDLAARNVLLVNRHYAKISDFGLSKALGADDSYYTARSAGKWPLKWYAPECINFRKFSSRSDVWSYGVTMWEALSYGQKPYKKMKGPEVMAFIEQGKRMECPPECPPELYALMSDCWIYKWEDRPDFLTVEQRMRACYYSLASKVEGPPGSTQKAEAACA
Chain of Tyrosine-protein kinase TXK (P42681 whole entry, the tested form may be a part): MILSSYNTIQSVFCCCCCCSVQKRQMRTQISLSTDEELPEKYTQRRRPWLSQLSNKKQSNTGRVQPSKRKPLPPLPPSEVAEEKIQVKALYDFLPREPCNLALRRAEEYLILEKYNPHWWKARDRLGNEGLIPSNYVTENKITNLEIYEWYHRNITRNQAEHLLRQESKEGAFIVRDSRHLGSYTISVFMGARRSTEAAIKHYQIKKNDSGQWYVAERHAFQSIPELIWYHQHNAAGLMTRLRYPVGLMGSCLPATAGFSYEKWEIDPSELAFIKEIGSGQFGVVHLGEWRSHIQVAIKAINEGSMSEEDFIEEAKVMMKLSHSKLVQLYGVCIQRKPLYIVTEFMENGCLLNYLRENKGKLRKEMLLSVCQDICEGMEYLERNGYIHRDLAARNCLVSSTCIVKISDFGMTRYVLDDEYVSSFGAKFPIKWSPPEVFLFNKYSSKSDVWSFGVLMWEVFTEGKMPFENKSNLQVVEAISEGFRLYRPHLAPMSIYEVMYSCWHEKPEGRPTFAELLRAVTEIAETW
Chain of MAP/microtubule affinity-regulating kinase 4 (Q96L34 whole entry): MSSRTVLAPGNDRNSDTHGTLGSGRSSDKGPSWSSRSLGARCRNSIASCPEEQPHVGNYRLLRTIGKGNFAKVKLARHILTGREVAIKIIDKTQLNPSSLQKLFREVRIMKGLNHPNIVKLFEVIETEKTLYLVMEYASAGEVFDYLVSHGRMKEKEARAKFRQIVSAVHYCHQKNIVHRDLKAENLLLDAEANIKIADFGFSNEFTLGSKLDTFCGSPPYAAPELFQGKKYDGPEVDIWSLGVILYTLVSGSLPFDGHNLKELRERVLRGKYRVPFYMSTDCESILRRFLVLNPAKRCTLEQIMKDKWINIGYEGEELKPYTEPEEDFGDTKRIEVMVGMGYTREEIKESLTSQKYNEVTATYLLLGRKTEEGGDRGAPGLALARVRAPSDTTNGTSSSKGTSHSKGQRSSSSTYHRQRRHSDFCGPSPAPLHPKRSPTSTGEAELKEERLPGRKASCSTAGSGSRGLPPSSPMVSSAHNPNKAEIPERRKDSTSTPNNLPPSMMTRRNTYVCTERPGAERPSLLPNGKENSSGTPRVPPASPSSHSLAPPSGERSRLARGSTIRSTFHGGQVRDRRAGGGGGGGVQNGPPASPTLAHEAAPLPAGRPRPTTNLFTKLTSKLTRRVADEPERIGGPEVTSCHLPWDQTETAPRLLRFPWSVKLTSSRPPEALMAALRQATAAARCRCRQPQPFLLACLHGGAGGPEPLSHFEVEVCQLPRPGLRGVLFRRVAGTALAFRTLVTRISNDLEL
Chain of Tyrosine-protein kinase JAK2 (O60674 whole entry, the tested form may be a part): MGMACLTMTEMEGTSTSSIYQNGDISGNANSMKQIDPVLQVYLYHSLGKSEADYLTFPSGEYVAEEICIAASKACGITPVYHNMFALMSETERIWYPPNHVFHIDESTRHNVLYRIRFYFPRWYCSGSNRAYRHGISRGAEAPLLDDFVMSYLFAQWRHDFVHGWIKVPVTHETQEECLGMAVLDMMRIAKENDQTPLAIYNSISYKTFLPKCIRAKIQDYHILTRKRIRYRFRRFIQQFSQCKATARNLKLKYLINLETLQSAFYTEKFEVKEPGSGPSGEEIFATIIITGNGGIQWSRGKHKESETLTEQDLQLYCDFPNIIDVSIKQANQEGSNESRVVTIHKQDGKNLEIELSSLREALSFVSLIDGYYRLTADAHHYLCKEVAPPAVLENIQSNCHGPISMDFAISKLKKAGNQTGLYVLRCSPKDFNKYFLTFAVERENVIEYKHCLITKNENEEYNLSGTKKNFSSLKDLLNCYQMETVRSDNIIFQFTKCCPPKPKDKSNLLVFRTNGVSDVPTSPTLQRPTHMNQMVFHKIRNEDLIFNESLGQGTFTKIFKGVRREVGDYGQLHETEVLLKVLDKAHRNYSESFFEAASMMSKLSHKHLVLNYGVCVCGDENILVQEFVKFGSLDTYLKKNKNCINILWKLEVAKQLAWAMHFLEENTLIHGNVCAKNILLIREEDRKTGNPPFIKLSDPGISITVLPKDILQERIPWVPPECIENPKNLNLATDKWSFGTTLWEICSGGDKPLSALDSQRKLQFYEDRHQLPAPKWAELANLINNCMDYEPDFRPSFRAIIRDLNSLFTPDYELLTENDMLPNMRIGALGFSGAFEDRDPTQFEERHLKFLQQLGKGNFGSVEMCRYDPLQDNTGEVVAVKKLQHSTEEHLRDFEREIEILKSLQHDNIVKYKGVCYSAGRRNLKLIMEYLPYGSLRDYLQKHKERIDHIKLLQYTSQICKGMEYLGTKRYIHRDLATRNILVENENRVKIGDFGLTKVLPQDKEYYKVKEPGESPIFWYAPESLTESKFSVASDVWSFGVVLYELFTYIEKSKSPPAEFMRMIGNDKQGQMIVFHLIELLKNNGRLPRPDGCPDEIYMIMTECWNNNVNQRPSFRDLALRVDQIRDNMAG
Chain of Serine/threonine-protein kinase SIK3 (Q9Y2K2 whole entry, the tested form may be a part): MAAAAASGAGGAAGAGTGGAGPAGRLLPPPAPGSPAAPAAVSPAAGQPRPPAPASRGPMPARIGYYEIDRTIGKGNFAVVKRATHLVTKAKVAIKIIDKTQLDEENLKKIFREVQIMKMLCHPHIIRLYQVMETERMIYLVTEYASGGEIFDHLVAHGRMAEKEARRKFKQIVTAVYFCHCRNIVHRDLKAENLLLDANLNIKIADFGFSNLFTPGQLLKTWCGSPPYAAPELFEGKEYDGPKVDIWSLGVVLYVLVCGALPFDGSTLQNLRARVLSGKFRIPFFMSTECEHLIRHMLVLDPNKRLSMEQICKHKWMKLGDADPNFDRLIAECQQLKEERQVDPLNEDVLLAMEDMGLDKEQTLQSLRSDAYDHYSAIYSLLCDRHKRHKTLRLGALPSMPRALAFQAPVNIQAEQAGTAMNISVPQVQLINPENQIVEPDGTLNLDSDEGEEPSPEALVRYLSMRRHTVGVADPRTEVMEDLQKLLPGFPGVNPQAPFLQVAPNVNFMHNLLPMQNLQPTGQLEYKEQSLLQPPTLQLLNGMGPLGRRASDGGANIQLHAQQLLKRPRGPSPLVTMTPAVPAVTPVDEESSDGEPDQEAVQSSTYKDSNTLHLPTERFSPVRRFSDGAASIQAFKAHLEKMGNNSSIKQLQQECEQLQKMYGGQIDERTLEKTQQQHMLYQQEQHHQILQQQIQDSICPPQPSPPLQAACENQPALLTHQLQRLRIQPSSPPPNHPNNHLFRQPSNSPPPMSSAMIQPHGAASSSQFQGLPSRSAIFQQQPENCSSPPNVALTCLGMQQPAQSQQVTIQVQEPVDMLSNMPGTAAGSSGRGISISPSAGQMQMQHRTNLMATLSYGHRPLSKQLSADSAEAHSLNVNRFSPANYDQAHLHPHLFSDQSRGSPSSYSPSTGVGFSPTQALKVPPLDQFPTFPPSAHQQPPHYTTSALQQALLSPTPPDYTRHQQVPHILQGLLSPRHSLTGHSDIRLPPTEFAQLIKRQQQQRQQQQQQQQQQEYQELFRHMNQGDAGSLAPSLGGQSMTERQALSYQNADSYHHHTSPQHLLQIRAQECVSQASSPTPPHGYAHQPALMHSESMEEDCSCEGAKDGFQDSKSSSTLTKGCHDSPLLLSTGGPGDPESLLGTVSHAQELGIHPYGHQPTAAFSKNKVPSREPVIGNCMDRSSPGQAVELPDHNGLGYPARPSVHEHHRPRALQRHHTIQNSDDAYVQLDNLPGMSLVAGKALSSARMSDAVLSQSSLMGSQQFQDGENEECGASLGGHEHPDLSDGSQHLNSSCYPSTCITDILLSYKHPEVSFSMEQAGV
Chain of Serine/threonine-protein kinase pim-2 (Q9P1W9 whole entry, the tested form may be a part): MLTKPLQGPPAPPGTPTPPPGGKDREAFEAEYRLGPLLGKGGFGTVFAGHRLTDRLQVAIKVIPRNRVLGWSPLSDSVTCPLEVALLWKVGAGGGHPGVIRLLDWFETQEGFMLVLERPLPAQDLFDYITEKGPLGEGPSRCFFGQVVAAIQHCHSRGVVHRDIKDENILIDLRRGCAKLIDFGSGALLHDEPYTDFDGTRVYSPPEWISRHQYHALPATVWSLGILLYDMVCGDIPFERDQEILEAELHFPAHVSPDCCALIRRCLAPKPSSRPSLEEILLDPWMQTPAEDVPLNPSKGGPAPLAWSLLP

Structure (SMILES): CO[C@@H]1[C@H](NCCOCCOCCOCCNC(=O)CCC2=[N+]3C(=Cc4c(C)cc(C)n4[B-]3(F)F)C=C2)C[C@H]2O[C@]1(C)n1c3ccccc3c3c4c(c5c6ccccc6n2c5c31)C(=O)NC4
- Kd [1]: 20 nM
- Kd (CDK2/Cyclin A2): 94 nM
- Kd [2]: 918 nM
- Kd [3]: 14 nM
- Kd [4]: 4 nM
- Kd [5]: 147 nM
- Kd (Ephrin type-A receptor 4): 1100 nM
- Kd [6]: 7 nM
- Kd [7]: 6 nM
- Kd [8]: 109 nM
- Kd (Ephrin type-A receptor 3): 747 nM
- Kd [9]: 43 nM
- Kd (Ephrin type-B receptor 2): 985 nM
- Kd [10]: 15 nM
- Kd [11]: 87 nM
- Kd [12]: 293 nM
- Kd (Ephrin type-B receptor 4): 1800 nM
- Kd [13]: 238 nM
- Kd [14]: 1010 nM
- Kd [15]: 10 nM
- Kd (Ephrin type-B receptor 6): 570 nM
- Kd (Ephrin type-A receptor 8): 1560 nM

Structure (SMILES): CO[C@@H]1[C@H](N(C)CCOCCOCCOCCNC(=O)CCC2=[N+]3C(=Cc4c(C)cc(C)n4[B-]3(F)F)C=C2)C[C@H]2O[C@]1(C)n1c3ccccc3c3c4c(c5c6ccccc6n2c5c31)C(=O)NC4
- Kd [16]: 559 nM
